Patent publication US20260102407A1, “TREATMENT METHODS” (priority 2020, published 2026)

Experiments:
[1] = test system: HMEC-1; test: Endothelial proliferation assay using the xCELLigence system; format: cell-based, human; conditions: for serum-inducible endothelial proliferation (xCELLigence cell index): HMEC-1, 5% FBS, 0.2-1 μM, 79 h
Experimental: Endothelial proliferation assay using the xCELLigence system. HMEC-1 proliferation was evaluated using the xCELLigence System (Roche, Castle Hill). Briefly, HMEC-1 (5×10^3 cells/well) were seeded in a 96-well E-plate and inserted into the xCELLigence RTCA station (Roche). Cells were serum-deprived for 24 h in MCDB131 medium which contained 10 ng/ml EGF (Sigma-Aldrich) and 1 μg/ml hydrocortisone (Sigma-Aldrich) then treated with compound (0.2-1 μM) in medium containing 5% FBS, 10 ng/ml EGF (Sigma-Aldrich) and 1 μg/ml hydrocortisone (Sigma-Aldrich). Cell growth was monitored automatically every 15 min by xCELLigence system. Cell index (CI) represents a quantitative measure of each well cell growth. In this system, CI a unitless parameter that reports impedance of electron flow caused by adherent cells.

[2] = test system: BAEC; test: Endothelial dual chamber migration assay toward VEGF-A165; format: cell-based, bovine; conditions: 1 μM; Transwell; 10% FBS and 50 ng/ml VEGF-A165 in lower chamber; 24 h
Experimental: Endothelial dual chamber migration assay. BAEC (6×10^3 cells/well) suspended in DMEM supplemented with 10% FBS were seeded into the upper chamber of 24-well plates fitted with Millicell cell culture inserts (cat. PI8P01250, Millipore). After 48 h, the medium was changed to DMEM supplemented with 0.01% FBS and the cells were incubated for 48 h. Compounds prepared in DMEM containing 0.01% FBS were added to the upper chamber. VEGF-A165 (50 ng/ml, Sigma, cat. V7259) in medium containing 10% FBS was added to the lower chamber. After 24 h, medium from the upper chamber was removed and a cotton swab was used to remove non-migrated cells and excess liquid. The insert was placed in 70% ethanol for 10 min to allow cell fixation and membranes were dried for 10-15 min. Filters were excised and placed on slides. Mounting medium (Fluoroshield™ with DAPI, Sigma, cat. 6057) was added and specimens were visualized using an EVOS FL microscope.

[3] = test system: HMEC-1; test: Endothelial repair following in vitro injury (scratch assay); format: cell-based, human; conditions: 0.6 μM, 5% FBS, 48 h
Experimental: Endothelial repair following in vitro injury. HMEC-1 (90-100% confluency) in 6-well plates were washed with PBS, and treated with 0.6 μM compound in MCDB131 containing 5% FBS. A sterile pointed toothpick was used to scrape the cell monolayer and the wells photographed under 4× objective at 0 h and 48 h. Cell regrowth in the denuded zone was determined using Image-Pro Plus (Cybernetics, USA).

[4] = test system: CD31; test: Matrigel plug assay, CD31 staining; format: in vivo; conditions: C57BL/6 mice; 2.5 mg/mouse in plug with VEGF-A165 and heparin; 7 days
Experimental: Matrigel plug assay. Matrigel (500 μl) containing VEGF-A165 (100 ng/ml), heparin (10U) and BT2 or BT3 (2.5 mg/mouse) or its vehicle (saline containing 0.01% DMSO and 0.5% Tween 80) was injected subcutaneously into the left flanks of male 8 week-old C57BL/6 mice. After 7d the mice were sacrificed by CO2 asphyxiation and the plugs carefully removed. Formalin-fixed paraffin embedded sections were prepared from Matrigel plugs for immunohistological assessment. Heat-induced epitope retrieval was applied to all deparaffinized sections (4 μm Superfrost slides) in citrate buffer, pH 6 for 5 min at 110° C. Immunostaining for all groups with a given antibody was performed simultaneously and development time was identical. […]
Slides were scanned using an Aperio ScanScope XT slide scanner (Leica Biosystems, Mt Waverley, Vic Australia) and images captured using ImageScope software (Leica Biosystems). Positive intraplug staining was assessed using Image-Pro Plus software (Cybernetics, Bethesda, MD) in 5-12 randomly selected fields of view for each plug photographed under 10× (CD31), 20× (VCAM-1) and 40× (FosB) objectives and expressed as integrated optical density (IOD, the product of calibrated intensity (optical density) and area, i.e. IOD=intensity (mean)×area) (Media Cybernetics) (Liu, H., et al., Sci Rep 6, 21319 (2016)). […]

[5] = target: T1, Recombinant human His-MEK1 (Homo sapiens, UniProt Q02750); test: SPR (Biacore T200) on immobilised His-MEK1; format: binding; conditions: 15° C.; 20 mM HEPES, 150 mM NaCl, 5% DMSO pH 7.4
T1 construct: purchased ThermoFisher Scientific PV3303
Experimental: SPR. SPR was performed on a Biacore T200. The active and reference flow cells of a Xantec NIHMC Ni sensor chip were conditioned with 0.5M NaEDTA followed by 5 mM NiCl2 in immobilisation buffer (20 mM HEPES, 150 mM NaCl, pH 7.4). Recombinant human His-MEK1 and His-MEK2 (500 nM, ThermoFisher Scientific, cat. PV3303 and PV3615, respectively) were injected for 15 min at 10 μl min^−1 over separate active flow cells. All immobilisation was carried out at 25° C. Following immobilisation, the temperature was lowered to 15° C., and the buffer changed to 20 mM HEPES, 150 mM NaCl, 5% DMSO pH 7.4. Samples of PD98059 (2.5-30 μM in running buffer) and BT2 (1.25-15 μM) were injected at a flow rate of 30 μl min^−1 over immobilised MEK1 and MEK2. Solvent correction was applied to the data using a DMSO standard curve. Data were analysed using the Biacore T200 Evaluation software. Prior to SPR, limits of compound solubility were determined using ^1H 1D NMR.

T1 sequence (Q02750 whole entry): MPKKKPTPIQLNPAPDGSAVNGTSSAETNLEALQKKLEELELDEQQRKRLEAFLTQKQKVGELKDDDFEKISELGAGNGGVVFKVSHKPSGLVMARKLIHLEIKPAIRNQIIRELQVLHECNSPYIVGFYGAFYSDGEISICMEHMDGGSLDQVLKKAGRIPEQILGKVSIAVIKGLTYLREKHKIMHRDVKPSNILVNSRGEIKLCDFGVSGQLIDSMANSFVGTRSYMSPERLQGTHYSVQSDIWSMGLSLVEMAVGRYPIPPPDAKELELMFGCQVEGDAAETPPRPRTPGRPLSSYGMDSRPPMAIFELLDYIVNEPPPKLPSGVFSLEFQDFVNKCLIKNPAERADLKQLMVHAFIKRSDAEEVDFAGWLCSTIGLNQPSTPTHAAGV

Row | Compound | serum-inducible endothelial proliferation (xCELLigence cell index) [1] | biological activity of formulation after autoclaving ([1]; autoclaved (121° C., 15 psi, 20 min), 4 months storage at 22° C., 0.4, 0.8 μM) | biological efficacy of stored formulation ([1]; heat-treated or not, storage up to 16 months) | inhibition of serum-inducible endothelial proliferation by stored formulation ([1]; with or without 100° C. for 10 min, 6 weeks storage, 0.4, 0.8 μM) | migration of BAEC toward VEGF-A165 [2] | endothelial regrowth after mechanical injury in vitro [3] | new blood vessel formation (CD31 staining) in Matrigel plugs [4] | binding to His-MEK1 (SPR) [5]
1 | CCOC(=O)Nc1ccc2c(c1)C(=O)N(CC)c1ccccc1O2 [BT2, (10-ethyl-11-oxo-10,11-dihydro-dibenzo[b,f][1,4]oxazepin-2-yl)-carbamic acid ethyl ester] | inhibited serum-inducible proliferation at concentrations in a dose-dependent manner | biologically active | no loss in biological efficacy | retained its ability to inhibit serum-inducible endothelial proliferation | inhibited migration | blocked this reparative response | suppressed new blood vessel formation | bound to His-MEK1 significantly better than to His-MEK2
2 | CCN1C(=O)c2cc(N)ccc2Oc2ccccc21 [BT3, 2-amino-10-ethyldibenzo[b,f][1,4]oxazepin-11 (10H)-one] | no inhibitory effect |  |  |  | neither BT3, nor PD98059 (allosteric MEK inhibitor), imatinib (tyrosine kinase inhibitor) or tofacitinib (Janus kinase inhibitor) had an inhibitory effect | no such effect | no effect | no appreciable binding
